Measured values as given in PubChem BioAssay (NCI).
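Cells were grown in 96-well plates and exposed to each compound for 48 hours at five concentrations; endpoints were interpolated linearly between bracketing concentrations, or set to the highest concentration if not reached. The concentration for 50% growth inhibition is given as GI50. The concentration for full growth arrest is given as TGI.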

What was measured:
Test in all cases: inhibition of tumour cell growth, NCI panel, 48 h
IGROV1 ovarian = test system: IGROV1 ovarian
M19-MEL melanoma = test system: M19-MEL melanoma
XF 498 CNS = test system: XF 498 CNS
SF-295 CNS = test system: SF-295 CNS
NCI-H522 lung = test system: NCI-H522 lung
SF-268 CNS = test system: SF-268 CNS
LOX IMVI melanoma = test system: LOX IMVI melanoma
NCI-H23 lung = test system: NCI-H23 lung
CAKI-1 renal = test system: CAKI-1 renal
MALME-3M melanoma = test system: MALME-3M melanoma
RPMI-8226 leukemia = test system: RPMI-8226 leukemia

SMILES: O=Cc1ccc(CCl)cc1
- TGI (IGROV1 ovarian): 46.3 µM
- TGI (M19-MEL melanoma): 52.5 µM
- TGI (XF 498 CNS): 34.6 µM
- TGI (SF-295 CNS): 32 µM
- TGI (NCI-H522 lung): 35.9 µM
- TGI (SF-268 CNS): 66.9 µM
- TGI (LOX IMVI melanoma): 28 µM

SMILES: COC(=O)C1=C(OC(=O)/C=C/c2ccc(Cl)cc2)C(C(=O)OC)[C@@]2(O)[C@@H](C(=O)OC)[C@H](C)C[C@@H]1[C@@H]2C(=O)OC (stereo partly drawn)
- TGI (IGROV1 ovarian): 23.1 µM
- TGI (NCI-H23 lung): 46 µM
- TGI (CAKI-1 renal): 87.3 µM
- TGI (SF-295 CNS): > 100 µM
- TGI (NCI-H522 lung): 23.1 µM
- TGI (MALME-3M melanoma): 38.2 µM
- TGI (SF-268 CNS): 42.9 µM
- TGI (LOX IMVI melanoma): 37.7 µM

SMILES: COC1(O)c2cccc(Cl)c2C(=O)N1C1(C(N)=O)CCCCC1 (stereo not drawn)
- TGI (IGROV1 ovarian): > 100 µM
- TGI (NCI-H23 lung): > 53.1 µM
- TGI (M19-MEL melanoma): > 100 µM
- TGI (CAKI-1 renal): > 100 µM
- TGI (XF 498 CNS): > 100 µM
- TGI (SF-295 CNS): > 100 µM
- TGI (NCI-H522 lung): > 100 µM
- TGI (MALME-3M melanoma): > 100 µM
- TGI (RPMI-8226 leukemia): > 100 µM
- TGI (SF-268 CNS): > 100 µM
- TGI (LOX IMVI melanoma): > 100 µM

SMILES: CSc1nc2c(ncn2C2OCC(O)C(O)C2O)c(=O)n1C (stereo not drawn)
- TGI (IGROV1 ovarian): > 100 µM
- TGI (NCI-H23 lung): > 100 µM
- TGI (M19-MEL melanoma): > 100 µM
- TGI (XF 498 CNS): > 100 µM
- TGI (SF-295 CNS): > 100 µM
- TGI (NCI-H522 lung): > 100 µM
- TGI (MALME-3M melanoma): > 100 µM
- TGI (RPMI-8226 leukemia): > 100 µM
- TGI (SF-268 CNS): > 100 µM
- TGI (LOX IMVI melanoma): > 100 µM

SMILES: COc1cc2c(cc1OC)C(=O)/C(=C/c1cc(OC)c(OC)c(OC)c1)C2
- TGI (IGROV1 ovarian): > 100 µM
- TGI (NCI-H23 lung): > 100 µM
- TGI (CAKI-1 renal): > 100 µM
- TGI (SF-295 CNS): > 100 µM
- TGI (NCI-H522 lung): 51 µM
- TGI (MALME-3M melanoma): > 100 µM
- TGI (RPMI-8226 leukemia): > 100 µM

SMILES: CN1CCN(Cc2ccc(NC(=O)c3cccc(C#Cc4cnc(N)c5ncccc45)c3F)cc2C(F)(F)F)CC1
- GI50 (IGROV1 ovarian): 0.476 µM
- TGI (IGROV1 ovarian): 1.31 µM
- GI50 (NCI-H23 lung): 3.99 µM
- TGI (NCI-H23 lung): 16.4 µM
- GI50 (CAKI-1 renal): 0.53 µM
- TGI (CAKI-1 renal): 6.34 µM
- GI50 (SF-295 CNS): 7.06 µM
- TGI (SF-295 CNS): 14.7 µM
- GI50 (NCI-H522 lung): 0.587 µM
- TGI (NCI-H522 lung): 1.47 µM
- GI50 (MALME-3M melanoma): 0.675 µM
- TGI (MALME-3M melanoma): 1.4 µM
- GI50 (RPMI-8226 leukemia): 2.28 µM
- TGI (RPMI-8226 leukemia): 13.2 µM
- GI50 (SF-268 CNS): 5.13 µM
- TGI (SF-268 CNS): 14.7 µM

SMILES: CC(=O)NC(Cc1ccsc1)C(=O)O (stereo not drawn)
- TGI (IGROV1 ovarian): > 100 µM
- TGI (NCI-H23 lung): > 100 µM
- TGI (M19-MEL melanoma): > 100 µM
- TGI (CAKI-1 renal): > 100 µM
- TGI (XF 498 CNS): > 100 µM
- TGI (SF-295 CNS): > 100 µM
- TGI (NCI-H522 lung): > 100 µM
- TGI (MALME-3M melanoma): > 100 µM
- TGI (RPMI-8226 leukemia): > 100 µM
- TGI (SF-268 CNS): > 100 µM
- TGI (LOX IMVI melanoma): > 100 µM

SMILES: COc1cccc(NC(=O)C(=O)C(C(=O)c2ccccc2F)C2OC(=O)c3ccccc32)c1 (stereo not drawn)
- TGI (IGROV1 ovarian): > 100 µM
- TGI (NCI-H23 lung): 98.1 µM
- TGI (M19-MEL melanoma): > 100 µM
- TGI (CAKI-1 renal): > 100 µM
- TGI (SF-295 CNS): > 100 µM
- TGI (NCI-H522 lung): 40.7 µM
- TGI (RPMI-8226 leukemia): 96.1 µM
- TGI (SF-268 CNS): > 100 µM
- TGI (LOX IMVI melanoma): 63.3 µM

SMILES: COC(=O)C(C/C=C(\C)c1ccc(Cl)cc1)C(C)=O (stereo not drawn)
- TGI (IGROV1 ovarian): > 100 µM
- TGI (NCI-H23 lung): > 100 µM
- TGI (M19-MEL melanoma): > 92.5 µM
- TGI (XF 498 CNS): > 100 µM
- TGI (SF-295 CNS): > 100 µM
- TGI (NCI-H522 lung): 92.3 µM
- TGI (MALME-3M melanoma): > 100 µM
- TGI (RPMI-8226 leukemia): > 69 µM
- TGI (SF-268 CNS): > 100 µM
- TGI (LOX IMVI melanoma): 28.1 µM

SMILES: COc1ccc2[nH]c3c(C)c4ccnc(NCCCN(C)CCCNc5ccc6ncn7c8ccccc8c(=O)c5c67)c4c(C)c3c2c1
- TGI (IGROV1 ovarian): 1.32 µM
- TGI (NCI-H23 lung): 1.94 µM
- TGI (CAKI-1 renal): 0.561 µM
- TGI (SF-295 CNS): 1.85 µM
- TGI (NCI-H522 lung): 1.24 µM
- TGI (MALME-3M melanoma): 5.92 µM
- TGI (RPMI-8226 leukemia): 4.56 µM
- TGI (SF-268 CNS): 17.3 µM
- TGI (LOX IMVI melanoma): 0.606 µM

SMILES: O=C(O)C12CCCCC1CCCC2 (stereo not drawn)
- TGI (IGROV1 ovarian): > 100 µM
- TGI (NCI-H23 lung): > 100 µM
- TGI (M19-MEL melanoma): > 100 µM
- TGI (CAKI-1 renal): > 100 µM
- TGI (XF 498 CNS): > 100 µM
- TGI (SF-295 CNS): > 100 µM
- TGI (NCI-H522 lung): > 100 µM
- TGI (RPMI-8226 leukemia): > 100 µM
- TGI (SF-268 CNS): > 100 µM
- TGI (LOX IMVI melanoma): > 100 µM
